Legend:
An. gambiae G3 strain = experiment: Topical toxicity bioassay, An. gambiae G3 strain adult females; format: in vivo, Anopheles gambiae; conditions: adult female An. gambiae; for ED50, G3 Strain: 24 h, (95% confidence limits), synergists PBO/DEF applied 4 h prior where labelled
Description: (§1) Topical toxicity bioassays were performed based on the method of Pridgeon et al.[50]. Briefly, non-blood fed adult female mosquitoes were chilled on ice for 1–3 minutes, during which 200 nL of chemical (dissolved in 95% ethanol) was applied onto the abdomen of the insect using a handheld Hamilton® micro-applicator. For synergism studies, 500 ng of the synergist (i.e., piperonyl butoxide [PBO] or S,S,S-tributyl phosphorotrithioate [DEF]) per milligram of mosquito (ng/mg) was applied to the abdomen 4 h prior to application of the insecticide. […] The three ED50 values obtained were then averaged and presented as a mean. An ethanol-only treatment was included in each experiment as a negative control. Treated mosquitoes were transferred to small cages with access to 10% sucrose and held under rearing conditions for 24 h. Mortality was recorded at 24 h.

AeKir1 = target: T1, AeKir1 (Aedes aegypti, UniProt L0EQS9); experiment: Tl+ flux assay, AeKir1; format: cell-based
T1 sequence (L0EQS9 1-486): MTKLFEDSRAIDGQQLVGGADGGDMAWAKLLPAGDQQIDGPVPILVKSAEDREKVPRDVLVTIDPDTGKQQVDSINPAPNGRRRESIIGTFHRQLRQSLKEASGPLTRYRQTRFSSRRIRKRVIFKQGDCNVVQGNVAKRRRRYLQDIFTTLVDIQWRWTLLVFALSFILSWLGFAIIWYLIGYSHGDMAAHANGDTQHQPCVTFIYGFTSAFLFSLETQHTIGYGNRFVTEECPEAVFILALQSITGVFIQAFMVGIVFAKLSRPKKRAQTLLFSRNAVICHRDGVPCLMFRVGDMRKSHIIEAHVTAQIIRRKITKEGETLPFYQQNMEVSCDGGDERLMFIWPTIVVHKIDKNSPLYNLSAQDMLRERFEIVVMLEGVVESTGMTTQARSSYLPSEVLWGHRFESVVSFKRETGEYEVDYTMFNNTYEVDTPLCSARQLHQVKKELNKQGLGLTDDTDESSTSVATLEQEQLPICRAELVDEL

Kir4.1 = target: T2, Kir4.1 (Homo sapiens, UniProt P78508); experiment: Tl+ flux assay, mammalian Kir4.1; format: cell-based
T2 construct: expressed in transfected cells
T2 sequence (P78508 1-379): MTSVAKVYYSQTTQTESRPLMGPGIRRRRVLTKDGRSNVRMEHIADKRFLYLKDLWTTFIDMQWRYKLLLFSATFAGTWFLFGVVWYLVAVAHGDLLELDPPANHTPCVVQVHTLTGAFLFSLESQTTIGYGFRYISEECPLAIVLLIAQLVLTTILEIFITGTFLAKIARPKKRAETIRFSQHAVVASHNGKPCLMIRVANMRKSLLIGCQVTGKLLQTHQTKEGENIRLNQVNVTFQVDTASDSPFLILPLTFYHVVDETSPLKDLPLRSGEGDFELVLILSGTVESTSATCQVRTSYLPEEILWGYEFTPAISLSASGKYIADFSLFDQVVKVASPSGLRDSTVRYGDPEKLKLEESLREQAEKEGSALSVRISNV

An. gambiae Akron strain = experiment: Topical toxicity bioassay, An. gambiae Akron strain adult females; format: in vivo; conditions: 24 h, adult female An. gambiae, (95% confidence limits), synergist PBO applied 4 h prior where labelled
Description: as §1

Ae. aegypti [1] = experiment: Topical toxicity bioassay, Ae. aegypti (LVP and PR strains) adult females; format: in vivo, Aedes aegypti; conditions: LVP strain
Description: Topical toxicity bioassays in adult female Ae. aegypti (LVP and PR strains) were performed as described previously. […] A solvent-only treatment was included in each experiment as a negative control. Treated mosquitoes were transferred to small cages with access to 10% sucrose and held under rearing conditions for 24 h. The efficacy of a dose was measured as the percentage of treated mosquitoes in a cage that were flightless or dead at 24 h. Four to eight replicates of 10 mosquitoes were performed per dose. The ED50 values were determined using a non-linear curve fit analysis (log [inhibitor] vs. response variable-slope) in Prism 6 (Graphpad Software).
Six replicate experiments of 10 mosquitoes were performed.

An. gambiae [2] = experiment: Blood meal processing (abdominal diameter) in An. gambiae; format: in vivo, Anopheles gambiae; conditions: topical 1 μg/mg (ED30 dose of VU041) immediately after engorgement, over 24 h
Description: Blood meal processing studies were performed with similar methods as described above, with the exception that An. gambiae were blood fed on anesthetized mice. All methods were carried out in accordance with Vanderbilt Institutional Animal Care and Use Committee approval (protocol M/13/164 to Dr. Julian Hillyer, Department of Biology, Vanderbilt University). Upon completion of blood feeding, female mosquitoes with a fully distended abdomen were selected and 200 nL of chemical at a non-lethal concentration (1 μg/mg) was applied directly to the abdomen. Any mosquito that died during the 24 h observation period was excluded from the analysis. Images of the abdomens were acquired at 0, 2, 5, 8, and 24 h through the dorsal cuticle and were measured at the widest point of the abdomen. These images were captured using bright-field illumination on a Nikon 90i light microscope (Nikon Corp., Tokyo, Japan) connected to a Photometrics CoolSNAP HQ2 high-sensitivity monochrome CCD camera (Roper Scientific, Ottobrunn, Germany). Digital images were acquired using Nikon Advanced Research NIS-Elements software. Mean abdominal diameters were compared using a one-way ANOVA with a Tukey’s post-hoc analysis (Prism 6, Graphpad Software, La Jolla, CA).

An. gambiae [3] = experiment: Fecundity (eggs laid) in An. gambiae; format: in vivo, Anopheles gambiae; conditions: VU041 ~1 μg/mg, VU937 ~10 μg/mg, topical within 1 h after engorgement, 72 h post blood feeding
Description: After treatment with the respective drugs, individual female mosquitoes were transferred to Drosophila vials (Fisher Scientific, Pittsburg, OA) containing 2 mL of water. The total number of eggs were counted 72-hours after being transferred to the vial. Any mosquitoes that died during this 72-hour period were excluded from the analysis. […] At least 25 female mosquitoes were used per replicate for each treatment group; each treatment was repeated on three separate broods, giving a total number of individuals studied ranging from 75–113 for each group.

Ae. aegypti [4] = experiment: Fecundity (eggs laid) in Ae. aegypti; format: in vivo, Aedes aegypti; conditions: 3.4 μg/mg mosquito, topical within 1 h after engorgement, 72 h post blood feeding
Description: The mosquitoes were returned to rearing conditions for 24 h after which they were transferred to individual egg laying tubes consisting of a glass tube 21 × 70 mm (Fisher Scientific, Pittsburg, PA) with a piece of coffee filter ([…] USA, Clearwater, FL) cut to fit the bottom of the tube. The filter was wetted with 150 μl of dH2O and the open end of the tube was plugged with a cotton ball. The mosquitoes in their individual egg laying tubes were returned to rearing conditions for an additional 48 h, and the number of eggs laid were counted. Any mosquitoes that died during the 72 h period after blood feeding were excluded from the analysis. Thirty female mosquitoes were used per replicate for each treatment group; each treatment was repeated on four separate broods, giving a total number of individuals studied ranging from 87-113 for each treatment group. For both species, the median number of eggs laid per mosquito was compared using a Kruskal-Wallis ANOVA with a Dunn's post-hoc analysis (Prism 6, Graphpad Software).

SMILES | ED50, G3 Strain (An. gambiae G3 strain) | IC50 (AeKir1) [nM] | inhibition at 30 µM (Kir4.1) [%] | ED30 (An. gambiae G3 strain) | ED50, Akron Strain (An. gambiae Akron strain) | ED50 (Ae. aegypti [1]; topical, 24 h, flightless or dead) [μg/mg mosquito] | change of abdominal diameter after blood meal (An. gambiae [2]) | median number of eggs laid per mosquito vs control (An. gambiae [3]) | median number of eggs laid per mosquito vs control (Ae. aegypti [4]) | topical toxicity (Ae. aegypti [1]; dose near ED50 of VU041, 24 h)
O=C(Cn1ncc2c1CCOC2)N1CCCc2ccccc21 [VU730] | 2.4 (2.1–2.9) A μg/mg |  |  |  |  |  |  |  |  | 
O=C(Cn1nc(C(F)(F)F)c2c1CCCC2)N1CCCc2ccccc21 [VU041, 1-(3,4-dihydroquinolin-1(2H)-yl)-2-(3-(trifluoromethyl)-4,5,6,7-tetrahydro-1H-indazol-1-yl)ethan-1-one] | 1.8 (0.9–3.1) A μg/mg | 1700 | < 10 | 1 μg/mg of mosquito | 2.8 (2.1–4.1) A μg/mg | 3.24 | did not change over the following 24 h period | significantly lower median number of eggs per mosquito | significantly lower median number of eggs per mosquito | 
O=C(Cn1nc(C(F)(F)F)c2c1CCCC2)NC1CCC1 [VU937] | >10 µg/mg |  |  |  | >10 µg/mg |  | decreased significantly over 24 h |  |  | not toxic
